Here are results for 26 compounds from ChEMBL document CHEMBL3124894, “Lactam sulfonamides as potent inhibitors of the Kv1.5 potassium ion channel” (Bioorg Med Chem Lett, 2014).

For orientation: chromatographic logD means a lipophilicity value derived from retention on a column. High values mean higher lipophilicity, low ones lower lipophilicity. One may read the IC50 as the midpoint of a concentration-inhibition curve. A word on the bioavailability: it is the share of a dose that reaches the circulation, judged against a reference dose that is usually intravenous. A higher bioavailability goes with much systemic uptake.

A short description of series [1]: Lipophilicity, log D of the compound by chromatography. Format: physicochemical.
Series [2] deals with T1, Potassium voltage-gated channel subfamily A member 5 (Homo sapiens, UniProt P22460). Kind of series: Inhibition of human Kv1.5 ion channel expressed in CHO cells by patch clamp assay. The class given is cell-based. (The patch-clamp technique gives a direct electrical read-out from membranes.)
T1 sequence (P22460 whole entry): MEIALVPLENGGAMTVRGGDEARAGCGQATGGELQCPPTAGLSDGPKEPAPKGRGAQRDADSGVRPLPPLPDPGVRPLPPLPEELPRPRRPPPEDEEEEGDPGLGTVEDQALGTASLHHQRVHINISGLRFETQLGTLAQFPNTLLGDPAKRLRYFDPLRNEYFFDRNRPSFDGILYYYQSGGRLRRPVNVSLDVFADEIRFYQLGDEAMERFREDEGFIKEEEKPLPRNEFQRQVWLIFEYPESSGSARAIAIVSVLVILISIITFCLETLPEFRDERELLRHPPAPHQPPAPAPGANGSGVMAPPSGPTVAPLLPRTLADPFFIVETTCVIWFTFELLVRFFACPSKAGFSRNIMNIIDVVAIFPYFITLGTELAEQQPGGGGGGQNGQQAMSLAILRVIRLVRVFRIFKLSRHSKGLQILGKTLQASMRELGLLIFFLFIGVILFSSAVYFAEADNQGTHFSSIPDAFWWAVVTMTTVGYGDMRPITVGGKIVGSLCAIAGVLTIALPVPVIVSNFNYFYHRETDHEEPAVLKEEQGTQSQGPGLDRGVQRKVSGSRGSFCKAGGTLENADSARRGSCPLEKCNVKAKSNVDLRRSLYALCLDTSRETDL
For series [3], the target named is T1, Potassium voltage-gated channel subfamily A member 5. In words: Inhibition of Kv1.5 ion channel (unknown origin) expressed in CHO cells by Rb(+) efflux assay. The class given is cell-based.
For series [4], the system named is Oryctolagus cuniculus. In words: Toxicity in New Zealand white rabbit assessed as CNS-like side effects at 0.1 to 1 umol/kg/min administered as infusion. The settings on record: in vivo, iv. The class given is organism-based.
Series [5] deals with Oryctolagus cuniculus. In words: Cardiotoxicity in New Zealand white rabbit assessed as QT interval at 0.1 to 1 umol/kg/min administered as infusion. Format: toxicity, organism-based. The settings on record: in vivo, iv.
Series [6] deals with Oryctolagus cuniculus. In words: Antiarrhythmic activity in New Zealand white rabbit assessed as unbound steady-state plasma concentration giving 20% change in atrium effective refractory period at 0.1 to 1 umol/kg/min administered as infusion. The class given is functional.
A short description of series [7]: Oral bioavailability in Beagle dog at 2 umol/kg. The class given is ADME, organism-based, Canis lupus familiaris. The settings on record: in vivo.
Series [8] is described as follows: Oral bioavailability in Sprague-Dawley rat at 6 umol/kg. Format: ADME, organism-based. Particulars: in vivo.
Series [9] in a line: Terminal half life in Beagle dog at 1 umol/kg, iv and 2 umol/kg, po. The class given is ADME, organism-based, Canis lupus familiaris. Particulars: in vivo, read-out: beta t1/2 (converted).
Series [10] is described as follows: Terminal half life in Sprague-Dawley rat at 2 umol/kg, iv and 6 umol/kg, po. Format: ADME, organism-based. Particulars: in vivo, read-out: beta t1/2 (converted).
Series [11] is described as follows: Clearance in Beagle dog at 1 umol/kg, iv and 2 umol/kg, po. Format: ADME, organism-based, Canis lupus familiaris. The settings on record: in vivo.
Series [12] can be described thus: Clearance in Sprague-Dawley rat at 2 umol/kg, iv and 6 umol/kg, po. Format: ADME, organism-based. Particulars: in vivo.
Series [13] in a line: Intrinsic clearance in human liver microsomes assessed per mg protein. The settings on record: read-out: CLH. The class given is ADME. A general note: Liver microsomes are a subcellular fraction often used to study metabolism.

A value given as a limit tells only on which side of the number the result lay.

`COc1cccc(S(=O)(=O)N(Cc2ccc(F)cc2)C[C@@H]2CCC(=O)N2)c1` gave a chromatographic logD in [1] of 3.1. In [2], the half-maximal inhibitory concentration (IC50) came to 2 µM.

The compound `O=C1CC[C@@H](CN(Cc2ccc(F)cc2)S(=O)(=O)c2cccc3c2OCCO3)N1` yielded a chromatographic logD in series [1] of 3. In [2], this compound displayed an IC50 above 10 µM.

As for `N#Cc1cccc(S(=O)(=O)N(Cc2ccccc2Cl)C[C@@H]2CCC(=O)N2)c1`, the chromatographic logD in series [1] was determined as 2.7. In addition, the IC50 in [2] is above 10 µM.

`O=C1CC[C@@H](CN(Cc2ccc(F)cc2)S(=O)(=O)c2ccc(F)cc2)N1` yielded a chromatographic logD in series [1] of 3. This compound came in with an IC50 in series [2] of 4.1 µM.

In series [1], `N#Cc1cccc(S(=O)(=O)N(Cc2ccc(Cl)cc2)C[C@@H]2CCC(=O)N2)c1` came in with a chromatographic logD of 3.1. In series [2], this compound yielded an IC50 of 2.2 µM.

In the case of `O=S(=O)(c1ccccc1F)N(Cc1ccccc1)Cc1ccc(F)cc1`, the chromatographic logD in series [1] stood at 6.2. The compound also showed a half-inhibitory concentration (IC50) in series [2] of 4.8 µM.

Regarding `CCN1C(=O)CC[C@H]1CN(Cc1ccc(F)cc1)S(=O)(=O)c1cccc(C#N)c1`, the chromatographic logD in series [1] was 3.5. For the same compound, in [2], the IC50 worked out at 2.8 µM.

`N#Cc1ccccc1S(=O)(=O)N(Cc1ccc(F)cc1)C[C@@H]1CCC(=O)N1` displayed a chromatographic logD in series [1] of 2.5. The compound further yielded an IC50 in series [2] above 30 µM.

Compound `NC(=O)c1ccc(N(Cc2ccc(F)cc2)S(=O)(=O)c2ccccc2F)cc1` had a chromatographic logD in [1] of 3.4. For the same compound, the IC50 in series [2] is 2.2 µM.

For `CN1C(=O)CC[C@H]1CN(Cc1ccc(F)cc1)S(=O)(=O)c1cccc(C#N)c1`, the chromatographic logD in [1] is 3.1. This compound gave a concentration for half-maximal inhibition (IC50) in [2] of 0.81 µM.

The compound `N#Cc1cccc(S(=O)(=O)N(CCc2ccc(F)cc2)C[C@@H]2CCC(=O)N2)c1` had a chromatographic logD in [1] of 2.9. This compound also had an IC50 in series [2] above 10 µM.

In the case of `O=C1CC[C@@H](CN(Cc2ccc(F)cc2)S(=O)(=O)c2cc(Cl)cc(Cl)c2)N1`, the chromatographic logD in series [1] is 4.4. Also, the IC50 in series [2] was found to be 8.1 µM.

In series [1], `N#Cc1cccc(S(=O)(=O)N(Cc2ccc(F)cc2)C[C@H]2CCC(=O)N2)c1` yielded a chromatographic logD of 2.5. The IC50 in [2] is 8.7 µM.

`COc1ccc(S(=O)(=O)N[C@H]2CCCC[C@@H]2OCc2ccccc2)cc1` (racemic) had a half-inhibitory concentration (IC50) in series [3] of 28 µM.

As to `O=C1CC[C@@H](CN(Cc2ccc(F)cc2)S(=O)(=O)c2cccc(Cl)c2)N1`, the chromatographic logD in [1] was determined as 3.6. The compound further returned an IC50 in series [2] of 0.8 µM.

Consider `N#Cc1cccc(S(=O)(=O)N(Cc2ccc(F)cc2)C[C@@H]2CCC(=O)N2)c1`, for which the chromatographic logD in [1] was 2.7. For the same compound, in [2], the IC50 was 2.6 µM.

Compound `O=C1CC[C@@H](CN(Cc2ccc(F)cc2)S(=O)(=O)c2ccccc2)N1` registered a chromatographic logD in series [1] of 2.7. Besides, half-maximal inhibition in [2] (IC50) required 8.8 µM.

Regarding `O=S(=O)(c1ccc(F)cc1)N(Cc1ccc(F)cc1)Cc1ccccn1`, in [1], the chromatographic logD is 4.7. In addition, the half-maximal inhibitory concentration (IC50) in [2] came out at 2 µM.

In series [1], `N#Cc1cccc(S(=O)(=O)N(Cc2cccc(Cl)c2)C[C@@H]2CCC(=O)N2)c1` showed a chromatographic logD of 3. Also, inhibition in series [2] was half-maximal at 4.3 µM (IC50).

As to `COc1ccc(S(=O)(=O)N(Cc2ccccc2)[C@H]2CCCC[C@@H]2O)cc1` (racemic), in series [1], the chromatographic logD came out at 4.6. In addition, in series [3], it took 2 µM to reach half-maximal inhibition (IC50).

In series [1], `O=C1CC[C@@H](CN(Cc2ccc(F)cc2)S(=O)(=O)c2cccc(F)c2)N1` had a chromatographic logD of 3.1. The same compound registered an IC50 in [2] of 7.2 µM.

With `N#Cc1ccc(S(=O)(=O)N(Cc2ccc(F)cc2)C[C@@H]2CCC(=O)N2)cc1`, in [1], the chromatographic logD came out at 2.6. This compound also registered an IC50 in series [2] above 30 µM.

As to `CS(=O)(=O)c1cccc(S(=O)(=O)N(Cc2ccc(F)cc2)C[C@@H]2CCC(=O)N2)c1`, in [1], the chromatographic logD was 2. Besides, the half-inhibitory concentration (IC50) in series [2] stood at 8.7 µM.

Turning to `N#Cc1cccc(S(=O)(=O)N(Cc2ccc(F)cc2)C[C@@H]2CCCC(=O)N2)c1`, the chromatographic logD in series [1] was determined as 2.9. In series [2], half-maximal inhibition (IC50) was put at 7.6 µM.

As for `N#Cc1cccc(S(=O)(=O)N(CC[C@@H]2CCC(=O)N2)Cc2ccc(F)cc2)c1`, in [1], the chromatographic logD worked out at 2.9. In addition, the half-maximal inhibitory concentration (IC50) in series [2] came to 2.7 µM.

With `CN1C(=O)CC[C@H]1CN(Cc1ccc(Cl)cc1)S(=O)(=O)c1cccc(C#N)c1`, in series [4], the Activity entry is “Non-toxic”. The Time in [5] was below 10 ms. Besides, in series [6], the “Cp(f)ss” value was found to be 0.35 µM. Also, the bioavailability was 44% in series [7] and 45% in series [8]. In addition, the half-life in series [9] is 52.2 min; in [10], 31.8 min. Further, the results for the clearance in series [11] and in series [12] were 31 mL/min/kg and 45 mL/min/kg, respectively. Moreover, the microsomal CLint in series [13] was found to be 116 µL/min/mg. In series [1], this compound showed a chromatographic logD of 3.6. Moreover, the IC50 in series [2] came to 0.21 µM.
